Data taken from US11253508B2, “PPARy agonist for treatment of progressive supranuclear palsy” (Coherus Biosciences, Inc., priority 2017, dated 2022).

What was measured:
adiponectin [1] = test: 14-day study of serum adiponectin levels in healthy subjects; assay type: in vivo, human
Description: A study was conducted to determine the effect of INT131 on serum adiponectin levels. Thirty healthy subjects were randomly selected to receive either placebo, 0.1 mg INT131, 1 mg INT131 or 4 mg INT131 daily for 14 days. To measure adiponectin levels blood was drawn at Days 1, 4, 8 and 14.

[2] = in words; cited from earlier work
[3] = system: subjects with Relapsing Remitting Multiple Sclerosis (RRMS); test: 6-month placebo-controlled MRI study in Relapsing Remitting Multiple Sclerosis (CE lesions, T2 lesions, brain volume); assay type: in vivo, human; conditions: for cumulative CE lesions / reduction of CE lesion burden vs. placebo / cumulative CE lesions, LSMean: over 6 months; for cumulative CE lesions: complete case analysis, placebo 7.8; for cumulative CE lesions, LSMean: placebo LSMean 6.49
Description: 227 treatment-naive adult subjects (mean age 31 [range 18-50]; 65% female) were randomized into one of three arms: oral CHS-131 at 3 mg (n=76); oral CHS-131 at 1 mg (n=76); placebo (n=75), at 21 sites in Russia. 97% completed Part 1. Inclusion criteria: Relapsing Remitting Multiple Sclerosis (RRMS) for ≤3 years, ≥1 gadolinium-positive lesion within 1-year of enrollment, and an EDSS≤6 at screening. The patients underwent monthly MRI examinations with contrast to identify new inflammatory lesions. All […] were read blinded at the Buffalo Neuroimaging Center (Buffalo, N.Y.). In addition to CE lesions the images were scored for cumulative new/enlarged T2 lesions, and serial cortical and whole brain volumetric analysis.

HbA1c [4] = test: 24-week randomized, double-blind, placebo-controlled study: HbA1c levels in subjects with type 2 diabetes; assay type: in vivo, human; conditions: 24 weeks
[5] = subjects taking INT131 vs pioglitazone; DePaoli et al. Diabetes Care 2014; cited from earlier work
adiponectin [6] = test: 24-week randomized, double-blind, placebo-controlled study: serum adiponectin levels in subjects with type 2 diabetes; assay type: in vivo, human; conditions: for Mean Change in adiponectin from baseline to Week 24: LOCF; for Mean Change in adiponectin from baseline to Week 24 / Mean Adiponectin, Week 24 / Mean Adiponectin, Week 0: type 2 diabetes, serum; for Mean Adiponectin, Week 0: baseline (Week 0)
Description: A randomized, double-blind, placebo-controlled, 24-week study was conducted in which adiponectin levels were measured. […] 367 subjects with type 2 diabetes (TD2)—a disease in which patient adiponectin levels are reduced—were randomly assigned to receive either 0.5, 1, 2 or 3 milligrams (“mg”) of INT131 besylate, 45 mg of pioglitazone or placebo daily for 24 weeks. To measure adiponectin levels blood was drawn at Weeks 0, 2, 6, 12 and 24.
At baseline (Week 0) mean adiponectin levels were 1.94 micrograms per milliliter (“μg/mL”). The mean adiponectin levels at baseline and Week 24, and the mean change in adiponectin levels from baseline (Week 0) to Week 24 are disclosed in Table 1, below. The standard deviation for samples tested in each group is listed in (parenthesis). Mean baseline adiponectin values were similar for the treatment groups.

HbA1c [7] = conditions: DePaoli et al. Diabetes Care 2014; cited from earlier work

Compound: O=S(=O)(Nc1cc(Cl)c(Oc2cnc3ccccc3c2)c(Cl)c1)c1ccc(Cl)cc1Cl [INT131]
- change in serum adiponectin levels Day 1 to Day 14 and over placebo (adiponectin [1]; 0.1 mg daily for 14 days): no significant change
- change in serum adiponectin levels over placebo and from Day 1 to Day 14 (adiponectin [1]; 1 mg or 4 mg daily for 14 days): significant change
- crossing of the blood brain barrier [2]: readily crosses the blood brain barrier
- cumulative CE lesions ([3]; 1 mg oral): 7.6
- reduction of CE lesion burden vs. placebo ([3]; 1 mg oral, p=ns, RRMS): 21%
- cumulative CE lesions, LSMean ([3]; 1 mg oral): 5.15
- reduction of new/enlarged T2 lesions compared to placebo ([3]; 1 mg, p=ns, RRMS): 14%
- cumulative CE lesions ([3]; 3 mg daily oral): 4.2 lesions
- reduction of CE lesion burden vs. placebo ([3]; 3 mg daily oral, p=0.003, RRMS): 52%
- cumulative CE lesions, LSMean ([3]; 3 mg daily oral): 3.10
- less cortical volume loss compared to placebo ([3]; 3 mg daily, 6 months, RRMS): 34.2%
- less whole brain volume loss compared to placebo ([3]; 3 mg daily, 6 months, RRMS): 50%
- reduction of new/enlarged T2 lesions compared to placebo ([3]; 3 mg, p=0.0767, RRMS): 30%
- reduction of HbA1c levels as compared to placebo (HbA1c [4]; 1, 2, and 3 mg doses daily): statistically significant reduction
- reduction of HbA1c levels compared with 45 mg of pioglitazone (HbA1c [4]; 2 and 3 mg doses daily): at least as well as 45 mg of pioglitazone
- side effects versus pioglitazone [5]: less edema, weight gain, and hemodilution
- Mean Change in adiponectin from baseline to Week 24 (adiponectin [6]; 0.5 mg daily): 0.56 µg/mL
- Mean Change in adiponectin from baseline to Week 24 (adiponectin [6]; 1 mg daily): 1.28 µg/mL
- adiponectin treatment comparison with placebo (adiponectin [6]; 1 mg, 2 mg, and 3 mg doses, p≤0.0109): statistically significant
- Mean Change in adiponectin from baseline to Week 24 (adiponectin [6]; 2 mg daily): 3.27 µg/mL
- Mean Change in adiponectin from baseline to Week 24 (adiponectin [6]; 3 mg daily): 3.83 µg/mL
- upregulation of serum adiponectin levels compared with pioglitazone (adiponectin [6]; 2 or 3 mg INT131 vs at least 22 times the amount of pioglitazone): greater upregulation
- Mean Adiponectin, Week 24 (adiponectin [6]; 0.5 mg daily): 2.28 µg/mL
- Mean Adiponectin, Week 24 (adiponectin [6]; 1 mg daily): 3.15 µg/mL
- Mean Adiponectin, Week 24 (adiponectin [6]; 2 mg daily): 5.14 µg/mL
- Mean Adiponectin, Week 24 (adiponectin [6]; 3 mg daily): 5.83 µg/mL
- Mean Adiponectin, Week 0 (adiponectin [6]; 0.5 mg INT131 besylate daily group): 1.73 µg/mL
- Mean Adiponectin, Week 0 (adiponectin [6]; 1 mg INT131 besylate daily group): 1.87 µg/mL
- Mean Adiponectin, Week 0 (adiponectin [6]; 2 mg INT131 besylate daily group): 1.87 µg/mL
- Mean Adiponectin, Week 0 (adiponectin [6]; 3 mg INT131 besylate daily group): 2.00 µg/mL
- efficacy in reducing HbA1c levels versus 45 mg of pioglitazone (HbA1c [7]): equally efficacious

Compound: CCc1ccc(CCOc2ccc(CC3SC(=O)NC3=O)cc2)nc1 (stereo not shown) [Pioglitazone, pioglitazone, reference compound]
- Mean Change in adiponectin from baseline to Week 24 (adiponectin [6]; 45 mg daily): 2.96 µg/mL
- Mean Adiponectin, Week 24 (adiponectin [6]; 45 mg daily): 5.28 µg/mL
- Mean Adiponectin, Week 0 (adiponectin [6]; 45 mg pioglitazone daily group): 2.32 µg/mL
